# Literature values in patent US10927398B2, “Compositions for CYP450 phenotyping using saliva samples” (Concordia University, Inc., priority 2015, dated 2021).
# Like-named read-outs stand apart in the source and are kept apart here.
# Legend:
# [1] = cited from earlier work
# plasma protein = conditions: cited from earlier work
# [2] = cited from earlier work; remark: listed apart in the source
# [3] = Table of Exemplary Drugs, CYP2C19
# [4] = Table of Exemplary Drugs, CYP3A4
# [5] = Table of Exemplary Drugs, CYP1A2
# [6] = Table of Exemplary Drugs, CYP2D6
# [7] = Table of Exemplary Drugs, CYP2C9
SMILES,"ORAL BIOAVAILABILITY [1, 4]",PLASMA PROTEIN BINDING (plasma protein; [4]),"HALF-LIFE [2, 4]",also measured
COc1ccc2nc([S@@+]([O-])Cc3ncc(C)c(OC)c3C)[nH]c2c1 [Esomeprazole],,,,"ORAL BIOAVAILABILITY [1, 3]: 90%; PLASMA PROTEIN BINDING (plasma protein; [3]): 97%; HALF-LIFE [2, 3]: 1.5 h"
"COc1ccccc1Oc1c(NS(=O)(=O)c2ccc(C(C)(C)C)cc2)nc(-c2ncccn2)nc1OCCO [Basentan (Tracleer), Basentan]",50%,98%,5 h,
CC(N)Cc1ccccc1 (stereo not shown) [Amphetamine],,,,"ORAL BIOAVAILABILITY ([1]; in vivo, po): 100+%"
CC(C)NCC(O)COc1cccc2ccccc12 (stereo not shown) [Propranolol],,,,"ORAL BIOAVAILABILITY [1, 5]: 100%; ORAL BIOAVAILABILITY [1, 3]: 30-70%; ORAL BIOAVAILABILITY [1, 6]: 30-70%; HALF-LIFE [2, 5]: 4 h; HALF-LIFE [2, 3]: 3 to 6 h; HALF-LIFE [2, 6]: 3 to 6 h"
"CN1C[C@H](C(=O)N[C@]2(C)O[C@@]3(O)[C@@H]4CCCN4C(=O)[C@H](Cc4ccccc4)N3C2=O)C=C2c3cccc4[nH]cc(c34)C[C@H]21 [Ergotamine (Ergomar), Ergotamine]",,,,"ORAL BIOAVAILABILITY ([1]; in vivo, po): <5%; HALF-LIFE ([2]; in vivo): 1.5 to 2.5 h"
CN(C)CCc1c[nH]c2ccc(C[C@H]3COC(=O)N3)cc12 [Zolmitriptan],,,,"ORAL BIOAVAILABILITY [1, 5]: ~40%; PLASMA PROTEIN BINDING (plasma protein; [5]): 25%"
O=C(O)Cc1ccccc1Nc1c(Cl)cccc1Cl [Diclofenac],,,,"ORAL BIOAVAILABILITY [1, 7]: 50%; HALF-LIFE [2, 7]: 1.9 to 2.2 h"
C=C[C@H]1C[N@@]2CC[C@H]1C[C@H]2[C@H](O)c1ccnc2ccc(OC)cc12 [Quinine],76-88%,,,
"Nc1ccc(S(=O)(=O)c2ccc(N)cc2)cc1 [Dapsone (Avlosulfon), Dapsone]",86-104%,70-90% ^,,
"CC(C)COCC(CN(Cc1ccccc1)c1ccccc1)N1CCCC1 (stereo not shown) [Bepridil (Vascor), Bepridil]",60%,,42 h,
Clc1ccc2nsnc2c1NC1=NCCN1 [Tizanidine],,,,"ORAL BIOAVAILABILITY [1, 5]: 40%; PLASMA PROTEIN BINDING (plasma protein; [5]): 30%"
"COc1cc2ncnc(Nc3ccc(F)c(Cl)c3)c2cc1OCCCN1CCOCC1 [Gefitinib (Iressa), Gefitinib]",60%,,,
"CN(C)C(=O)C(CCN1CCC(O)(c2ccc(Cl)cc2)CC1)(c1ccccc1)c1ccccc1 [Loperamide (Imodium), Loperamide]",0.30%,,9 to 14 h,
"CC(C)CN(C[C@@H](O)[C@H](Cc1ccccc1)NC(=O)O[C@H]1CO[C@H]2OCC[C@H]21)S(=O)(=O)c1ccc(N)cc1 [Darunavir (Prezista), Darunavir]",37%,,,
COc1ccc2c(c1)N(C[C@H](C)CN(C)C)c1ccccc1S2 [Levomepromazine],,,,"ORAL BIOAVAILABILITY [1, 6]: 50-60%; HALF-LIFE [2, 6]: 15 h"
"O=C1Cc2cc(CCN3CCN(c4nsc5ccccc45)CC3)c(Cl)cc2N1 [Ziprasidone (Geodon), Ziprasidone]",60%,,7 h,
"CC[C@H](O)C(C[C@H](C)N(C)C)(c1ccccc1)c1ccccc1 [Levomethadyl (Orlaam), Levomethadyl]",,80%,,HALF-LIFE ([2]; in vivo): 35 to 60 h
"C[C@H](/C=C/[C@H](C)C(C)(C)O)[C@H]1CC[C@H]2/C(=C/C=C3C[C@@H](O)C[C@H](O)C3)CCC[C@]12C [Paricalcitol (Zemplar), Paricalcitol]",72%,,5 to 7 h,
O=C1CCc2ccc(OCCCCN3CCN(c4cccc(Cl)c4Cl)CC3)cc2N1 [Aripiprazole],,,,"PLASMA PROTEIN BINDING (plasma protein; [6]): >99%; HALF-LIFE [2, 6]: 75 h"
"CN1CC(=O)N2[C@H](c3ccc4c(c3)OCO4)c3[nH]c4ccccc4c3C[C@@H]2C1=O [Tadalafil (Cialis), Tadalafil]",,94%,15 to 35 h,
COc1ccc2[nH]cc(CCNC(C)=O)c2c1 [Melatonin],,,,"ORAL BIOAVAILABILITY [1, 5]: 3-76%; HALF-LIFE [2, 5]: 0.583 to 0.833 h"
C[C@H]1C[C@@H]2[C@H]([C@@H](O)C[C@@]3(C)[C@H]2CC[C@]3(O)C(=O)CO)[C@@]2(C)C=CC(=O)C=C12 [Methylprednisolone],,78%,2 to 3 h,
CC(C)(C)NC[C@H](O)COc1nsnc1N1CCOCC1 [Timolol],,,,"ORAL BIOAVAILABILITY [1, 6]: 90%; PLASMA PROTEIN BINDING (plasma protein; [6]): <10%"
CC1(C)NC(=O)N(c2ccc([N+](=O)[O-])c(C(F)(F)F)c2)C1=O [Nilutamide],,,,"PLASMA PROTEIN BINDING (plasma protein; [3]): 80-84% ^; HALF-LIFE [2, 3]: 38 to 59.1 h"
"CCOC(=O)C1=C(COCCN)NC(C)=C(C(=O)OC)C1c1ccccc1Cl (stereo not shown) [Amlodipine (Norvasc), Amlodipine]",64-90%,,,
"CC1(C)O[C@@H]2[C@@H](CO[C@@]3(COS(N)(=O)=O)OC(C)(C)O[C@@H]23)O1 [Topiramate (Topamax), Topiramate]",80%,15-41% ^,,

SMILES,"ORAL BIOAVAILABILITY [1, 4]",PLASMA PROTEIN BINDING (plasma protein; [4]),"HALF-LIFE [2, 4]",also measured
CC(C)Cc1ccc(C(C)C(=O)O)cc1 (stereo not shown) [Ibuprofen],,,,"ORAL BIOAVAILABILITY [1, 7]: 87-100%"
"CC(C)CN(C[C@@H](OP(=O)(O)O)[C@H](Cc1ccccc1)NC(=O)O[C@H]1CCOC1)S(=O)(=O)c1ccc(N)cc1 [Fosamprenavir (Lexiva), Fosamprenavir]",,90%,7.7 h,
C=C[C@H]1C[N@@]2CC[C@H]1C[C@@H]2[C@@H](O)c1ccnc2ccc(OC)cc12 [Quinidine],70-80%,50-88% ^,,
"CCC1(C)CC(=O)NC1=O (stereo not shown) [Ethosuximide (Zarontin), Ethosuximide]",93%,,25 to 60 h,
C[C@]12C=CC(=O)C=C1CC[C@@H]1[C@@H]2[C@@H](O)C[C@@]2(C)[C@H]1CC[C@]2(O)C(=O)CO [Prednisolone],,70-90% ^,2 to 4 h,
CN(C)CCCN1c2ccccc2CCc2ccccc21 [Imipramine],,,,"ORAL BIOAVAILABILITY [1, 5]: 22-77%; ORAL BIOAVAILABILITY [1, 3]: 94-96%; ORAL BIOAVAILABILITY [1, 6]: 94-96%; PLASMA PROTEIN BINDING (plasma protein; [5]): 60-96% ^; PLASMA PROTEIN BINDING (plasma protein; [3]): 89%; PLASMA PROTEIN BINDING (plasma protein; [6]): 89%"
"NC(=O)C[S+]([O-])C(c1ccccc1)c1ccccc1 (stereo not shown) [Modafinil (Provigil), Modafinil]",,60%,7.5 to 15 h,
"Cc1cccc(C)c1OCC(=O)N[C@@H](Cc1ccccc1)[C@@H](O)C[C@H](Cc1ccccc1)NC(=O)[C@H](C(C)C)N1CCCNC1=O [Lopinavir (Kaletra), Lopinavir]",,98-99% ^,5 to 6 h,
"CC(C)(C)NC(=O)[C@@H]1C[C@@H]2CCCC[C@@H]2CN1C[C@@H](O)[C@H](Cc1ccccc1)NC(=O)[C@H](CC(N)=O)NC(=O)c1ccc2ccccc2n1 [Saquinavir (Invirase), Saquinavir]",,98%,13 h,
CN1CCN2c3ncccc3Cc3ccccc3C2C1 (stereo not shown) [Mirtazapine],,,,"ORAL BIOAVAILABILITY [1, 6]: 50%"
"Cc1nnc2n1-c1ccc(Cl)cc1C(c1ccccc1Cl)=NC2 [Triazolam (Halcion), Triazolam]",,,,PLASMA PROTEIN BINDING (plasma protein; plasma): 89-94% ^; HALF-LIFE ([2]; in vivo): 2.3 h
COc1cc2c(c(OC)c1OC)-c1ccc(OC)c(=O)cc1[C@@H](NC(C)=O)CC2 [Colchicine],45%,,26.6 to 31.2 h,
"CN1C2CCCC1CC(NC(=O)c1nn(C)c3ccccc13)C2 (stereo not shown) [Granisetron (Kytril), Granisetron]",,65%,3 to 24 h,
CN1C(C(=O)Nc2ccccn2)=C(O)c2ccccc2S1(=O)=O [Piroxicam],,,,"PLASMA PROTEIN BINDING (plasma protein; [7]): 99%; HALF-LIFE [2, 7]: 50 h"
[H]/N=C(\N/C(=N/[H])Nc1ccc(Cl)cc1)NC(C)C [Proguanil],,,,"PLASMA PROTEIN BINDING (plasma protein; [3]): 75%; HALF-LIFE [2, 3]: 12 to 18 h"
Cc1cc2c(s1)Nc1ccccc1N=C2N1CCN(C)CC1 [Olanzapine],,,,"ORAL BIOAVAILABILITY [1, 5]: 87%; HALF-LIFE [2, 5]: 21 to 54 h"
"CCN(CC)CC#CCOC(=O)C(O)(c1ccccc1)C1CCCCC1 (stereo not shown) [Oxybutynin (Ditropan), Oxybutynin]",,91-93% ^,7 to 30 h,
"CC(=O)O[C@@]12CO[C@@H]1C[C@H](O)[C@@]1(C)C(=O)[C@H](O)C3=C(C)[C@@H](OC(=O)[C@H](O)[C@@H](NC(=O)OC(C)(C)C)c4ccccc4)C[C@@](O)([C@@H](OC(=O)c4ccccc4)[C@H]21)C3(C)C [Docetaxel (Taxotere), Docetaxel]",,94-97% ^,11.1 h,
"CC(C)(C)NC(=O)[C@H]1CC[C@H]2[C@@H]3CC[C@H]4NC(=O)C=C[C@]4(C)[C@H]3CC[C@]12C [Finasteride (Proscar), Finasteride]",65%,,4.5 h,
"C=C(c1ccc(C(=O)O)cc1)c1cc2c(cc1C)C(C)(C)CCC2(C)C [Bexarotene (Targretin), Bexarotene]",,99%,7 h,
"CCOC(=O)C1=C(C)NC(C)=C(C(=O)OC)C1c1cccc(Cl)c1Cl (stereo not shown) [Felodipine (Plendil), Felodipine]",13-20%,,,
COc1ccc(C(CN(C)C)C2(O)CCCCC2)cc1 (stereo not shown) [Venlafaxine],,,,"ORAL BIOAVAILABILITY [1, 6]: 12.6%; PLASMA PROTEIN BINDING (plasma protein; [6]): 27-30% ^"
OCCN1CCN(CCCN2c3ccccc3Sc3ccc(Cl)cc32)CC1 [Perphenazine],,,,"ORAL BIOAVAILABILITY [1, 6]: 20%; HALF-LIFE [2, 6]: 9 to 12 h"
"CC[C@H](C)C(=O)O[C@H]1C[C@@H](C)C=C2C=C[C@H](C)[C@H](CC[C@@H]3C[C@@H](O)CC(=O)O3)[C@H]21 [Lovastatin (Mevacor), Lovastatin]",,>95%,2 to 5 h,
"Cc1nc(Nc2ncc(C(=O)Nc3c(C)cccc3Cl)s2)cc(N2CCN(CCO)CC2)n1 [Dasatinib (Sprycel), Dasatinib]",,96%,3 to 5 h,
"CCN(CC)CCNC(=O)c1c(C)[nH]c(/C=C2\C(=O)Nc3ccc(F)cc32)c1C [Sunitinib (Sutent), Sunitinib]",,95%,40 to 60 h,
